How the values were obtained:
IL-6 = experiment: ELISA of IL-6 in LPS-stimulated RAW264.7 cells; type: cell-based, mouse; settings: 10 μM, RAW264.7, LPS, 24 h, vs blank control
Experimental: (§1) RAW264.7 cells were cultured in 6-well plates (2×10^5 cells/well) for 24 h and treated with 25 newly synthesized compounds (final concentration at 10 μM) for 30 min, respectively. Subsequently, the cells were stimulated with 1 μL of LPS (500 ng/mL) (L8880, Solarbio). After 24 h, the supernatant was collected and analyzed using an ELISA kit (EK206 and EK182, MULTISCIENCES) to quantify the levels of inflammatory cytokines IL-6 and TNF-α ([Li et al., 2021]).

A431 cells [1] = experiment: Wound healing analysis of cell migration, A431; type: cell-based, human; settings: A431, 4 μM, 48 h, compared to 4i
Experimental: (§2) The A431 and A549 cells were cultured in 6-well plates (5×10^5 cells/well). When the cell confluency reached approximately 90%, used a sterile 10 μL pipette tip to create three parallel scratches evenly. Subsequently, rinsed with PBS to remove floating cells, and then treated with B7 and 4i at final concentrations of 4 μM. Captured images using a microscope camera system (Nikon, JPN) at 0 and 48 h post-treatment ([Xu et al., 2023]).

[2] = Oil-water partition coefficient (log P) measurement; type: physicochemical; settings: n-octanol/water, room temperature
Experimental: The partition coefficient between n-octanol and water (log Po/w) is the classical descriptor for Lipophilicity ([Daina et al., 2017]). The test methodology followed previously published protocols ([Wang et al., 2021]). At room temperature, two large Erlenmeyer flasks were taken and filled with n-octanol and water, respectively. The flasks were placed in a constant temperature shaker at 150 rpm for 24 h to saturate the solvents. The mixtures were then transferred to separating funnels under normal pressure to obtain water-saturated n-octanol and n-octanol-saturated water for subsequent use. The target compound (2 mg) was accurately weighed and placed in a 2 mL brown volumetric flask. Anhydrous methanol was added to ultrasonically dissolve the compound, and the mixture was diluted to volume and thoroughly shaken to prepare a 1 mg/mL stock solution. The stock solution was further diluted to obtain 1, 1.5, 2, 2.5, 5 and 10 μg/mL reference solutions for construction of a standard curve using a UV-visible spectrophotometer. An excess amount of the analyte was dissolved in water-saturated n-octanol, and the mixture was shaken at 150 rpm for 24 h at constant temperature to obtain a saturated solution. The saturated solution was allowed to stand, centrifuged, and 1 mL of the supernatant was transferred to a 4 mL centrifuge tube. N-octanol saturated water (1 mL) was added, and the mixture was shaken at 150 rpm for 24 h at constant temperature. After standing for 8 h, the mixture was centrifuged. Appropriate amounts of the n-octanol phase before and after equilibration were diluted with methanol, and concentrations were determined from the standard curve to obtain C0 and C1. The concentration in the n-octanol saturated aqueous phase, Cw, was calculated as Cw = C0 - C1. Thus, log Po/w = […].

Beas-2b cells = experiment: MTT cell proliferation and toxicity assay, Beas-2b; type: cell-based, human; settings: Homo sapiens, BEAS-2B, 48 h, read-out: Beas-2b cells inhibition rate
Experimental: (§3) Beas-2b, A431, A549 and H1299 cells were cultured in 96-well plates (5 × 10^3 cells/well) for 16 h, respectively. Subsequently, positive compound 4i and 25 newly synthesized compounds were added at a final concentration of 10 μM or gradient concentrations (0.01, 0.1, 0.5, 1, 5 and 10 μM), co-incubated with the cells for 48 h. MTT (M8180, Solarbio) solutions (5 mg/mL) were then added and incubated for 4 h in the dark. Then, formazan crystals were dissolved with DMSO (D8371, Solarbio), followed by shaking on a shaker (DRAGONLAB, China) for 10 min. Finally, absorbance at 490 nm wavelength for each well was measured with Microplate reader (Molecular Devices, United States) ([Tang et al., 2020]; [Lee et al., 2021]). The results are expressed as mean ± SD from three independent experiments. Cells inhibition rates or IC50 values were calculated using GraphPad Prism 9.5.0.

H1299 cells = experiment: MTT cell proliferation assay, H1299; type: cell-based, human; settings: Homo sapiens, NCI-H1299, 48 h, read-out: IC50 (mean ± SD) H1299
Experimental: as §3

AKT = experiment: Western blot, AKT phosphorylation; type: cell-based, human; settings: A431 and A549 cells, 1, 5 and 10 μM, 2 h
Experimental: (§4) The A431 and A549 cells were cultured in 6-well plates (2×10^5 cells/well) for 2 h and treated with different concentrations of B7(1, 5, and 10 μM) or 4i (10 μM). The corresponding cells were collected, washed with PBS (P1020, Solarbio), and lysed with RIPA buffer (R0010, Solarbio) to extract the total proteins. The extracted protein was loaded, subjected to SDS-PAGE electrophoresis (Bio-Rad) ([Xu et al., 2023]), and then the protein was transferred to a PDVF membrane (IPVH00010, Millipore) and incubated in the corresponding Primary Antibody AKT (9272, Cell Signaling Technology), phospho-AKT (4058, Cell Signaling Technology), ERK (A4782, ABclonal Technology), phospho-ERK (AP0974, ABclonal Technology) and GAPDH (AB0037, Abways Technology) overnight. Then, the Primary Antibody was recovered and enzyme-labeled secondary antibodies Goat Anti-Rabbit IgG HRP (H + L) (A0208, Beyotime Technology) were used. Finally, Imaging was performed on a gel Imaging System (Bio-Rad, United States) using the Ultra-sensitive ECL Chemiluminescence Assay Kit (P0018AS, Beyotime Technology).

A431 cells [3] = experiment: Flow cytometry analysis of cell apoptosis, A431; type: cell-based, human; settings: A431, 1, 2 and 4 μM, 24 h
Experimental: (§5) The A431 and A549 cells were cultured in 6-well plates (1×10^5 cells/mL) for 16 h. Subsequently, cells were treated with different concentrations (1, 2 and 4 μM) of either B7 or 4i for 24 h. Then, the cells were collected, washed, and stained with the FITC Annexin V Apoptosis Detection Kit I (556547, BD) ([Jiang et al., 2017]). Sample testing was performed using a FACS Calibur Flow Cytometer (BD, United States), and subsequent data analysis was performed using FlowJo 10.6.2.

[4] = test system: common anti-tumor receptor kinases; experiment: Activity of common anti-tumor receptor kinases
A431 cells [5] = experiment: MTT cell proliferation assay, A431; type: cell-based, human; settings: Homo sapiens, A-431, 48 h, read-out: IC50 (mean ± SD) A431
Experimental: as §3

ERK = experiment: Western blot, ERK phosphorylation; type: cell-based, human; settings: A431 and A549 cells, 1, 5 and 10 μM, 2 h
Experimental: as §4

A549 cells [6] = experiment: Flow cytometry analysis of cell cycle, A549; type: cell-based, human; settings: A549, 24 h
Experimental: (§6) The A431 and A549 cells were cultured in 6-well plates (1×10^5 cells/mL) for 16 h. Subsequently, they were treated with different concentrations (1, 2 and 4 μM) of either B7 or 4i (4 μM) for 24 h. Cells were collected, mixed by adding 75% ethanol with shaking on a vortex shaker, and placed in the refrigerator at 4°C for overnight fixation. The cells were incubated with PI-Raze solution for 15 min at room temperature, protected from light, according to the instructions of BD Cycletest Plus DNA Reagent Kit (340242, BD), and detected by FACS Calibur flow cytometry ([Oh et al., 2023]), and subsequent data analysis was performed using FlowJo 10.6.2.

A431 cells [7] = experiment: Flow cytometry analysis of cell cycle, A431; type: cell-based, human; settings: A431, 24 h
Experimental: as §6

TNF-α = experiment: ELISA of TNF-α in LPS-stimulated RAW264.7 cells; type: cell-based, mouse; settings: 10 μM, RAW264.7, LPS, 24 h, vs blank control
Experimental: as §1

A549 cells [8] = experiment: Flow cytometry analysis of cell apoptosis, A549; type: cell-based, human; settings: A549, 1, 2 and 4 μM, 24 h
Experimental: as §5

A549 cells [9] = experiment: MTT cell proliferation assay, A549; type: cell-based, human; settings: Homo sapiens, A549, 48 h, read-out: IC50 (mean ± SD) A549
Experimental: as §3

A549 cells [10] = experiment: Wound healing analysis of cell migration, A549; type: cell-based, human; settings: A549, 4 μM, 48 h, compared to 4i
Experimental: as §2

O=[N+]([O-])c1ccc(CNc2nc3ccc(Cl)cc3s2)cc1 [B7, 6-chloro-N-(4-nitrobenzyl)benzo[d]thiazol-2-amine]
effect on IL-6 expression (IL-6): significant inhibitory effects
migration inhibitory effect, in words (A431 cells [1]): slightly surpassed that of 4i
logP [2]: 3.25 ± 0.24
inhibition at 10 µM (Beas-2b cells): 16.6 ± 1.36%
IC50 (H1299 cells): 1680 ± 120 nM
AKT protein phosphorylation, in words (AKT): markedly inhibit
apoptosis rate, in words (A431 cells [3]): gradual increase in the apoptosis rate
impact on common anti-tumor receptor kinases, in words [4]: minimal impact
IC50 (A431 cells [5]): 1510 ± 200 nM
ERK protein phosphorylation, in words (ERK): markedly inhibit
cell cycle arrest, in words (A549 cells [6]): G2 phase cell cycle arrest effect
cell cycle arrest, in words (A431 cells [7]): G2 phase cell cycle arrest effect
effect on TNF-α expression (TNF-α): significant inhibitory effects
apoptosis rate, in words (A549 cells [8]): gradual increase in the apoptosis rate
IC50 (A549 cells [9]): 960 ± 240 nM
inhibitory effect on cell migration, in words (A549 cells [10]): stronger inhibitory effect

Reference: paper PMC10982501, “Synthesis and biological evaluation of novel benzothiazole derivatives as potential anticancer and antiinflammatory agents” (Frontiers in Chemistry, 2024)
